# Legend:
# [1] = system: Human umbilical vein endothelial cells (HUVEC); test: Endothelial sprouting assay; type: cell-based; details: HUVEC-coated beads in fibrin gels, 3 days, 0.625 μg/ml to 5 μg/ml, FIG. 1, averages from seven independent experiments
# Procedure: Human umbilical vein endothelial cells (HUVEC) from normal umbilical cords were obtained by collagenase treatment. Cultures were propagated in MCDB medium supplemented with 15% FCS, heparin, and endothelial cell growth supplement. Endothelial sprouting was assessed by a modification of the method of Nehls and Drenckhahn ^14. Briefly, microcarrier beads coated with gelatin (Cytodex 3, Sigma) were seeded with HUVEC. When the cells reached confluence on the beads, equal numbers of […] beads were embedded in fibrin gels in 96-well plates. For preparation of fibrin gels, bovine fibrinogen was dissolved in MCDB at a concentration of 2.5 mg/ml. Aprotinin was added at a concentration of 0.05 mg/ml and the solution filtered through a 0.22 micron filter. Fibrinogen solution was supplemented with FGF-2 or sokotrasterol sulphate. As a control, fibrinogen solution without angiogenic factor was used. Following transfer of the fibrinogen solution to 96-well plates, HUVEC-coated beads were added at a density of 50 beads/well, and clotting was induced by the addition of thrombin (1.2 U/ml). […] After 3 days of incubation with daily medium changes, the number of capillary-like tubes formed was quantitated by counting the number of tube-like structures per microcarrier bead (sprouts/bead). Only sprouts greater than 150 μm in length and composed of at least 3 endothelial cells were counted. […]
# [2] = system: chick chorioallantoic membrane (CAM); test: Chick chorioallantoic membrane (CAM) assay; type: in vivo, Gallus gallus domesticus; details: 20, 40 and 60 μg/ml, 20 μl on gelatin sponge, day 8 to day 10
# Procedure: Fertilized White Leghorn chicken eggs (Gallus gallus domesticus) were incubated at 37° C. under conditions of constant humidity. All chick eggs were handled according to institutional animal care procedures. On embryonic day 6, the developing chick chorioallantoic membrane (CAM) was separated from the shell by opening a small circular window at the broad end of the egg above the air sac. The embryos were checked for normal development, the window sealed with Parafilm, and the eggs returned to the incubator for 2 more days. On day 8, CAMs were treated with FGF-2 (30 ng/ml), sokotrasterol sulphate (20, 40 and 60 μg/ml) or PBS by loading 20 μl onto 2-mm^3 gelatin sponges (Gelfoam; Pharmacia Upjohn), which were then placed on the surface of the developing CAM. Eggs were resealed and returned to the incubator. On day 10, images of the CAMs were captured digitally using an Olympus SZX9 stereomicroscope (Olympus America) equipped with a Spot RT digital imaging system (Diagnostic Instruments). Neovascularization was quantitated for each CAM by counting the number of vessels that entered the sponge area, and dividing by the perimeter of the sponge (vessels/mm). Northern Eclipse version 6.0 (Empix Imaging Inc.) was used for manual vessel counting and mesh perimeter measurements.
# [3] = listed as Sokotrasterol sulphate
substance,measurement,setting,value
sokotrasterol sulphate,"endothelial sprouting (number of tube-like structures per microcarrier bead, sprouts/bead)",[1],promoted endothelial sprouting in vitro in a concentration-dependent manner
same,"endothelial sprouting (number of tube-like structures per microcarrier bead, sprouts/bead)",[1]; [3],promotes endothelial sprouting in vitro
same,neovascularization: number of vessels entering the gelatin sponge per mm of perimeter (vessels/mm),[2],positive concentration-dependent effect
same,neovascularization: number of vessels entering the gelatin sponge per mm of perimeter (vessels/mm),[2]; [3],promotes angiogenesis
